Laboratory results: publication PMC11643554, “Synthesis, Cytotoxicity and Antiproliferative Effect of New Pyrrole Hydrazones” (Molecules, 2024)
“And” between values parts separate entries of the source, which are not always exact repeats. Identical values can stand only once. Like-named read-outs stand apart in the source and are kept apart here.

How the values were obtained:
[1] = BALB 3T3 Neutral Red Uptake safety test (cytotoxicity/phototoxicity); assay type: cell-based, mouse; settings: mouse, BALB 3T3 clone A31 embryonic fibroblasts, BALB 3T3, NRU, 24 h incubation, n = 6
Description: (§1) The Neutral Red Uptake in vitro assay is a colorimetric method for assessing cell viability. This method is based on the ability of living cells to incorporate Neutral Red dye into lysosomes. Mouse embryonic fibroblasts were seeded at 1 × 10^4 cells/100 μL culture medium/well in 96-well cell culture microplates. The cells were incubated for 24 h to allow cell adhesion. The cells were then treated with a solution of the test substances in double-increasing concentrations (from 15 to 4000 μM). The phototoxicity test was performed in parallel on a second 96-well plate, which was irradiated with a solar simulator (LED lamp—Helios-iO (SERIC Ltd., Tokyo, Japan) for 10 min (irradiation dose 0.86 J). After 24 h of incubation, a culture medium containing Neutral Red was added. After 3 h of incubation, the wells were washed with PBS, and a Desorb solution (50% Ethanol, 1% Acetic acid, 49% dH2O) was added. The optical density (OD) was measured by a microplate reader at λ = 540 nm. The percentage of cytotoxicity was calculated according to the following formula:Cytotoxicity (%) = (1 − (OD540 (sample)/OD540 (negative control))) × 100 Phototoxicity is expressed by Photoirritation factor (PIF), PIF = CC50 − Irr/CC50 +Irr* * Irradiation

[2] = system: mouse embryonic fibroblasts BALB 3T3 clone A31; assay: as above; assay type: cell-based; settings: PIF = CC50 −Irr/CC50 +Irr; PIF < 2 not phototoxic, 2 < PIF < 5 probable phototoxicity, PIF > 5 phototoxic
Description: as §1

[3] = system: human keratinocytes HaCaT; assay: Antiproliferative activity, MTT dye reduction assay, HaCaT; assay type: cell-based; settings: non-tumor keratinocytes HaCaT, 72 h, n = 6, read-out: Mean IC50 ± SD, HaCaT
Description: (§2) The antiproliferative activity of the studied substances was determined by MTT dye reduction assay. The assay is based on the metabolism of MTT by reductases in the mitochondria to formazan, the concentration of which can be determined photometrically. The measured absorbance is an indicator of cell viability and metabolic activity. Cells were seeded in 96-well cell culture plates (1 × 10^3 cells/well). Followed by incubation at 37 °C, 5% CO2 for 24 h. Followed by incubation for 72 h of the cells with the studied substances in twice increasing concentrations. After washing with PBS, 100 µL/well of MTT solution (0.5 mg/mL) was added. After 3 h of incubation, the 96-well plates were washed with PBS, and 100 µL/well of lysing solution (DMSO/Ethanol = 1/1) was added. Optical density was measured at a wavelength of 540 nm. The antiproliferative activity expressed in % of the negative control was calculated according to the following formula:Antiproliferative activity (%) = (1 − (OD540 (sample)/OD540 (negative control))) × 100
(§3) The IC50 values (a concentration that inhibited 50% cell proliferation) were calculated using non-linear regression analysis (GraphPad Prizm8 Software). The statistical analysis included the application of one-way ANOVA followed by Bonferroni’s post hoc test. p < 0.05 was accepted as the lowest level of statistical significance. All results are presented as mean ± SD.

human melanoma SH-4 = assay: Antiproliferative activity, MTT dye reduction assay, SH-4; assay type: cell-based; settings: for IC50: melanoma SH-4, MTT, 72 h, n = 6, read-out: Mean IC50 ± SD, SH-4; for SI (Selective index): SI = IC50 (non-tumor cell line HaCaT)/IC50 (tumor cell line SH-4)
Description: as §2, §3

SH-4 cells [4] = assay: Annexin V-FITC/PI flow cytometry assay (apoptosis); assay type: cell-based, human; settings: for Early apoptosis (Annexin V+/PI−, Q3) / Late apoptosis (Annexin V+/PI+, Q2) / Necrosis (Annexin V−/PI+, Q1) / Live (viable cells, Annexin V−/PI−, Q4): 1 6 µM, 1A 260 µM, 1B 260 µM, cisplatin 20 µM; for Early apoptosis (Annexin V+/PI−, Q3) / Late apoptosis (Annexin V+/PI+, Q2) / Necrosis (Annexin V−/PI+, Q1) / Live (viable cells, Annexin V−/PI−, Q4) / population fraction of total apoptotic cells: 1C 40 µM, 1D 8 µM
Description: Apoptosis was discriminated with the annexin V-FITC/PI test according to the manufacturer’s protocol (SIGMA-ALDRICH APOAF). […] After completion of each drug incubation, cell media that may contain cells in suspension was centrifuged at 350× g for 5 min. Subsequently, the cell monolayers were washed once with PBS, and cells were detached with trypsin and then collected together with a centrifuged pellet. The cells were washed twice with cold PBS and then resuspended in a Binding Buffer (0.1 M Hepes/NaOH (pH 7.4), 1.4 M NaCl, 25 mM CaCl2) at a concentration of 1 × 10^5 cells/mL. The cells were incubated with 5 µL of FITC Annexin V and 10 µL PI for 20 min at RT (25 °C) in the dark. The analysis was performed with BD FACS DIVA software version 7.0 (BD Biosciences, Franklin Lakes, NJ, USA). Data were analyzed as follows: lower left quadrant, viable cells (Annexin V−/PI−); lower right quadrant, early apoptotic cells (Annexin V+/PI−); upper right quadrant, late apoptotic cells (annexin V+/PI+); upper left quadrant, necrotic cells (annexin V−/PI+). Three independent experiments were performed, with two replicates per experiment.

SH-4 cells [5] = assay: Cell cycle analysis, PI stain, flow cytometry; assay type: cell-based, human; settings: SH-4, 48 h; for G2 phase, percentage of cells / S phase, percentage of cells / G0/G1 phase, percentage of cells: 1 6 µM, 1A 260 µM, 1B 260 µM, 1C 40 µM, 1D 8 µM, cisplatin 20 µM; for G2 phase, percentage of cells: control 12.1; for S phase, percentage of cells: control 21.6; for G0/G1 phase, percentage of cells: control 63.6; for effect on cell cycle distribution (in words): at IC50 doses
Description: After incubation, cells were washed twice with ice-cold PBS and fixed with ice-cold 70% ethanol at −20 °C overnight. The cells were treated with 20 µg/mL RNase A at 37 °C for 60 min, then washed with PBS and finally stained with 20 µg/mL PI in the dark for 30 min. The cellular DNA content for the cell cycle distribution analysis was performed with the system software (BD FACS DIVA software (BD Biosciences, Franklin Lakes, NJ, USA)), plotting at least 10,000 events per sample. Three independent experiments were performed, with two replicates per experiment.

[6] = irradiated with solar simulator 10 min (0.86 J), read-out: Mean CC50 ± SD, +Irr
[7] = without irradiation, read-out: Mean CC50 ± SD, −Irr

SMILES | IC50 (human melanoma SH-4; Homo sapiens) | melting point | CC50 at 24 h [1, 6] | CC50 at 24 h [1, 7] | PIF (Photo Irritation Factor) [2] | Early apoptosis (Annexin V+/PI−, Q3) (SH-4 cells [4]; SH-4, 48 h) | Late apoptosis (Annexin V+/PI+, Q2) (SH-4 cells [4]; SH-4, 48 h) | Necrosis (Annexin V−/PI+, Q1) (SH-4 cells [4]; SH-4, 48 h) | G2 phase, percentage of cells (SH-4 cells [5]) | S phase, percentage of cells (SH-4 cells [5]) | G0/G1 phase, percentage of cells (SH-4 cells [5]) | IC50 ([3]; Homo sapiens) | SI (Selective index) (human melanoma SH-4) | Live (viable cells, Annexin V−/PI−, Q4) (SH-4 cells [4]; SH-4, 48 h) | effect on cell cycle distribution (in words) (SH-4 cells [5]) | further results
CN(C)CCCN1c2ccccc2Sc2ccc(Cl)cc21 [Chlorpromazine, reference compound] |  |  | 9.13 ± 0.72 µM | 65.8 ± 2.64 µM | 7.21 |  |  |  |  |  |  |  |  |  |  | 
N.N.[Cl][Pt][Cl] [Cisplatin, reference compound] |  |  |  |  |  | 36.4% | 2.59% | 0.34% | 17.7% | 61.3% | 17.8% |  |  |  |  | IC50 [3]: 8.64 ± 0.42 µM; IC50 (human melanoma SH-4): 22.8 ± 1.47 µM
CCOC(=O)c1cc(-c2ccc(Cl)cc2)n(C(Cc2ccccc2)C(=O)NN)c1C (stereo not drawn) [Compound 1, Ethyl-5-(4-chlorophenyl)-1-(1-hydrazinyl-1-oxo-3-phenylpropan-2-yl)-2-methyl-1H-pyrrole-3-carboxylate] | 6.86 ± 0.6 µM | 170 to 173 °C | 55.8 ± 4.49 µM | 52.3 ± 2.63 µM | 0.94 | 42.7% | 8.74% | 0.19% | 13.4% | 28.5% | 57% | 9.64 ± 0.58 µM | 1.41 |  |  | viability at 6 µM (SH-4 cells [4]; Homo sapiens, SH-4, 48 h, read-out: Live (viable cells, Annexin V−/PI−, Q4)): 48.3%; increase of total apoptotic cell populations compared to the control group (SH-4 cells [4]; SH-4, 48 h incubation, 6 µM): 50%
CCOC(=O)c1cc(-c2ccc(Cl)cc2)n(C(Cc2ccccc2)C(=O)N/N=C/c2[nH]c(C(=O)OCC)c(C)c2C(=O)OCC)c1C (stereo not drawn) [Compound 1A, Diethyl(E)-5-((2-(2-(5-(4-chlorophenyl)-3-(ethoxycarbonyl)-2-methyl-1H-pyrrol-1-yl)-3-phenylpropanoyl)hydrazineylidene)methyl)-3-methyl-1H-pyrrole-2,4-dicarboxylate] | 270 ± 13.5 µM | 109 to 112 °C | 2840 ± 124 µM | 3140 ± 167 µM | 1.11 | 36.5% | 4.78% | 0.50% | 14.8% | 24.5% | 59.8% | 503 ± 31.1 µM | 1.87 | 58.2% | no significant changes in the cell cycle distribution | apoptotic activity (in words) (SH-4 cells [4]; SH-4, 48 h, 260 µM, versus Cisplatin 20 µM): comparable apoptotic activity with positive control

Further lines, with some results ahead:

IC50 (human melanoma SH-4; Homo sapiens) | melting point | SMILES | CC50 at 24 h [1, 6] | CC50 at 24 h [1, 7] | PIF (Photo Irritation Factor) [2] | Early apoptosis (Annexin V+/PI−, Q3) (SH-4 cells [4]; SH-4, 48 h) | Late apoptosis (Annexin V+/PI+, Q2) (SH-4 cells [4]; SH-4, 48 h) | Necrosis (Annexin V−/PI+, Q1) (SH-4 cells [4]; SH-4, 48 h) | G2 phase, percentage of cells (SH-4 cells [5]) | S phase, percentage of cells (SH-4 cells [5]) | G0/G1 phase, percentage of cells (SH-4 cells [5]) | IC50 ([3]; Homo sapiens) | SI (Selective index) (human melanoma SH-4) | Live (viable cells, Annexin V−/PI−, Q4) (SH-4 cells [4]; SH-4, 48 h) | effect on cell cycle distribution (in words) (SH-4 cells [5]) | further results
258 ± 16.1 µM | 129 to 132 °C | CCOC(=O)c1cc(-c2ccc(Cl)cc2)n(C(Cc2ccccc2)C(=O)N/N=C/c2[nH]c(C)c(C(=O)OCC)c2C)c1C (stereo not drawn) [Compound 1B, Ethyl(E)-5-(4-chlorophenyl)-1-(1-(2-((4-(ethoxycarbonyl)-3,5-dimethyl-1H-pyrrol-2-yl)methylene)hydrazineyl)-1-oxo-3-phenylpropan-2-yl)-2-methyl-1H-pyrrole-3-carboxylate] | 2270 ± 55.4 µM | 2180 ± 154 µM | 0.96 | 48.9% | 6.1% | 0.46% | 13.6% | 34% | 50.2% | 544 ± 26.8 µM | 2.11 | 44.6% | slight increase in the S phase population | apoptotic potential higher than α-aldehyde derivative 1A (SH-4 cells [4]; SH-4, 48 h, 260 µM): 14%
44.6 ± 3.51 µM | > 230 °C | CCOC(=O)c1cc(-c2ccc(Cl)cc2)n(C(Cc2ccccc2)C(=O)N/N=C/c2c(C)[nH]c(C(=O)OCC)c2C)c1C (stereo not drawn) [Compound 1C, Ethyl(E)-4-((2-(2-(5-(4-chlorophenyl)-3-(ethoxycarbonyl)-2-methyl-1H-pyrrol-1-yl)-3-phenylpropanoyl)hydrazineylidene)methyl)-3,5-dimethyl-1H-pyrrole-2-carboxylate] | 1750 ± 31.7 µM | 1670 ± 41.5 µM | 0.95 | 39% | 7.13% | 0.43% | 24.5% | 38.5% and 38% | 35% | 171 ± 4.09 µM | 3.83 | 53.4% | induction of S-phase arrest | population fraction of total apoptotic cells (SH-4 cells [4]; SH-4, 48 h): around 46%
8.72 ± 0.6 µM | > 230 °C | CCOC(=O)c1cc(-c2ccc(Cl)cc2)n(C(Cc2ccccc2)C(=O)N/N=C/c2c(C)[nH]c(C)c2C(=O)OCC)c1C (stereo not drawn) [Compound 1D, Ethyl(E)-5-(4-chlorophenyl)-1-(1-(2-((4-(ethoxycarbonyl)-2,5-dimethyl-1H-pyrrol-3-yl)methylene)hydrazineyl)-1-oxo-3-phenylpropan-2-yl)-2-methyl-1H-pyrrole-3-carboxylate] | 3370 ± 130 µM | 3800 ± 185 µM | 1.13 | 32.5% | 6.51% | 0.78% | 23.2% | 46.4% and 46% | 28.3% | 11 ± 0.42 µM | 1.26 | 60.2% | induction of S-phase arrest | population fraction of total apoptotic cells (SH-4 cells [4]; SH-4, 48 h): 39%
